Source: paper PMC6337650 (Molecules, 2018)

What was measured:
[1] = system: HCT-116 cells; assay: MTT antiproliferative assay, HCT-116; format: cell-based, human; details: Homo sapiens, HCT-116, 48 h, MTT, mean ± SD, n=3; for inhibition at 100 µM: read-out: % Growth Inhibition at 100 μM HCT-116
Method: (§1) The antiproliferative activity of the target compounds against a normal L02 cell line and the three different human cancer cell lines viz. colorectal (HCT-116), liver (BEL-7402) and liver (HepG2) were evaluated using a standard MTT-based colorimetric assay. All cell lines were obtained from the Key Laboratory of Natural Resources and Functional Molecules of the Changbai Mountain (Yanbian University, Jilin, China) and maintained in Dulbecco’s modified Eagle’s medium (DMEM) and RPMI Media 1640 (RPMI1640), supplemented with 10% fetal bovine serum (FBS) at 37 °C in a humidified atmosphere containing 5% CO2.
(§2) Cells were plated in 96-well plates at appropriate densities to ensure exponential growth throughout the experimental period (9 × 10^3 cells per well) and then allowed to adhere for 24 h. Cells were then treated for 48 h with four serial concentrations (1, 10, 50 and 100 µM) of each compound. 5-fluorouracil (5-FU) was used as a positive control. After 48 h of incubation, 10 µL of MTT solution was added to each well to a final concentration of 2 mg/mL. Plates were then incubated for a further 4 h. After incubation, the MTT solution was removed and 150 µL of DMSO was added to each well for coloration. The plates were shaken vigorously for 10 min at room temperature to ensure complete solubilization. The optical density (OD) was read on a microplate reader (ELx800, BioTek, Highland Park, Winooski, VT, USA) at a wavelength of 492 nm and the data were subsequently analyzed. The percentage of cell growth inhibition was calculated from the following equation: Inhibitory rate (%) = [(1 − (ODtreated-ODblank)/(ODcontrol-ODblank)] × 100.(1)

[2] = system: BEL-7402 cells; assay: MTT antiproliferative assay, BEL-7402; format: cell-based, human; details: Homo sapiens, Bel-7402, 48 h, MTT, mean ± SD, n=3; for inhibition at 100 µM: read-out: % Growth Inhibition at 100 μM BEL-7402
Method: as §1, §2

[3] = system: HepG2 cells; assay: MTT antiproliferative assay, HepG2; format: cell-based, human; details: Homo sapiens, HepG2, 48 h, MTT, mean ± SD, n=3; for inhibition at 100 µM: read-out: % Growth Inhibition at 100 μM HepG2
Method: as §1, §2

| IC50 [1] [µM] | IC50 [2] [µM] | IC50 [3] [µM] | melting point [°C] | SMILES | inhibition at 100 µM [1] [%] | inhibition at 100 µM [2] [%] | inhibition at 100 µM [3] [%] |
| --- | --- | --- | --- | --- | --- | --- | --- |
| 24.8 ± 2.08 | 21.3 ± 2.43 | 23.4 ± 0.37 | – | O=c1[nH]cc(F)c(=O)[nH]1 [5-FU, 5-fluorouracil, reference compound] | – | – | – |
| – | – | – | 165 to 166 | COC(=O)C(Cc1c[nH]c2ccccc12)NC(=O)C1(C)CCCC2(C)C3CCC4(C)CC3(CCC12)CC4=O [Compound 3d, Methyl((4R,4aS,6aR,9S,11aR,11bS)-4,9,11b-trimethyl-8-oxotetradecahydro-6a,9-methanocyclohepta[a]naphthalene-4-carbonyl)-L-tryptophanate] | 19.7 ± 1.11 | 35.8 ± 2.37 | < 10 |
| – | – | – | 107 to 108 | C[C@@]12CC[C@@H]3[C@@](CC[C@H]4[C@@]3(C)CCC[C@@]4(C)C(=O)OCC(=O)Nc3ccccc3Cl)(CC1=O)C2 [Compound 4b, 2-((2-chlorophenyl)amino)-2-oxoethyl(4R,4aS,6aR,9S,11aR,11bS)-4,9,11b-trimethyl-8-oxotetradecahydro-6a,9-methanocyclohepta[a]naphthalene-4-carboxylate] | < 10 | < 10 | < 10 |
| – | – | – | 120 to 122 | C[C@@]12CC[C@@H]3[C@@](CC[C@H]4[C@@]3(C)CCC[C@@]4(C)C(=O)OCC(=O)Nc3cccc(Cl)c3)(CC1=O)C2 [Compound 4c, 2-((3-chlorophenyl)amino)-2-oxoethyl(4R,4aS,6aR,9S,11aR,11bS)-4,9,11b-trimethyl-8-oxotetradecahydro-6a,9-methanocyclohepta[a]naphthalene-4-carboxylate] | 62.3 ± 3.55 | 35.7 ± 2.56 | < 10 |

Second part, the compound before the results:

| SMILES | IC50 [1] [µM] | IC50 [2] [µM] | IC50 [3] [µM] | melting point [°C] | inhibition at 100 µM [1] [%] | inhibition at 100 µM [2] [%] | inhibition at 100 µM [3] [%] |
| --- | --- | --- | --- | --- | --- | --- | --- |
| C[C@@]12CC[C@@H]3[C@@](CC[C@H]4[C@@]3(C)CCC[C@@]4(C)C(=O)NCCN3CCCC3)(CC1=O)C2 [Compound 1a, (4R,4aS,6aR,9S,11aR,11bS)-4,9,11b-trimethyl-8-oxo-N-(2-(pyrrolidin-1-yl)ethyl)tetradecahydro-6a,9-methanocyclohepta[a]naphthalene-4-carboxamide] | – | – | – | 136 to 137 | 65.2 ± 2.52 | 87.1 ± 2.37 | 66 ± 1.33 |
| CON(C)C(=O)[C@]1(C)CCC[C@@]2(C)[C@@H]3CC[C@@]4(C)C[C@]3(CC[C@@H]21)CC4=O [Compound 1c, (4R,4aS,6aR,9S,11aR,11bS)-N-methoxy-N,4,9,11b-tetramethyl-8-oxotetradecahydro-6a,9-methanocyclohepta[a]naphthalene-4-carboxamide] | – | – | – | 144 to 145 | < 10 | 31.3 ± 1.22 | < 10 |
| CN1CCN(C(=O)COC(=O)[C@]2(C)CCC[C@@]3(C)[C@@H]4CC[C@@]5(C)C[C@]4(CC[C@@H]32)CC5=O)CC1 [Compound 2a, 2-(4-methylpiperazin-1-yl)-2-oxoethyl(4R,4aS,6aR,9S,11aR,11bS)-4,9,11b-trimethyl-8-oxotetradecahydro-6a,9-methanocyclohepta[a]naphthalene-4-carboxylate] | – | – | – | 112 to 113 | 62.1 ± 1.02 | 65 ± 2.62 | 40.6 ± 0.7 |
| C[C@@]12CC[C@@H]3[C@@](CC[C@H]4[C@@]3(C)CCC[C@@]4(C)C(=O)OCC(=O)N3CCN(c4ccccc4)CC3)(CC1=O)C2 [Compound 2c, 2-oxo-2-(4-phenylpiperazin-1-yl)ethyl(4R,4aS,6aR,9S,11aR,11bS)-4,9,11b-trimethyl-8-oxotetradecahydro-6a,9-methanocyclohepta[a]naphthalene-4-carboxylate] | – | – | – | 143 to 144 | 15.7 ± 0.61 | 40.5 ± 0.87 | < 10 |
| COC(=O)C(NC(=O)C1(C)CCCC2(C)C3CCC4(C)CC3(CCC12)CC4=O)C(C)C [Compound 3c, Methyl((4R,4aS,6aR,9S,11aR,11bS)-4,9,11b-trimethyl-8-oxotetradecahydro-6a,9-methanocyclohepta[a]naphthalene-4-carbonyl)-L-valinate] | – | – | – | – | 54.7 ± 0.59 | 66.6 ± 1.9 | 23.9 ± 0.85 |
